Test results: patent US20100016221A1, “METHOD OF DEGRADING PROTEIN BY CHAPERONE-MEDIATED AUTOPHAGY” (RIKEN, priority 2008, published 2010)
Entries after “also recorded” stand apart in the source; their conditions may differ. Square brackets hold non-standard residues; d marks the D form. Ends that are not written are not given here. Peptide text beside a SMILES is read from it. * marks the point of attachment. Sta = CC(C)C[C@H](N)[C@@H](O)CC(=O)O; Isovaleryl = CC(C)CC(=O)*

Experiments:
[1] = tested on: polyQ inclusions in 150Q Neuro2a cells; assay: Confocal imaging of tested constructs in 150Q Neuro2a cells; format: cell-based, mouse
Experimental: (§1) Mouse neuroblastoma (Neuro2a) cells were maintained in Dulbecco's modified Eagle's medium (Sigma) supplemented with 10% heat-inactivated fetal bovine serum (Sigma), 100 U/ml penicillin and 100 μg/ml streptomycin (Invitrogen) at 37° C. in an atmosphere containing 5% CO2 and 95% air. Establishment of stable Neuro2a cell lines with the ecdysone-inducible mammalian expression system (Invitrogen), that express tNhtt-EGFP-16Q (16Q Neuro2a cells), tNhtt-EGFP-150Q (150Q Neuro2a cells) and tNhtt-EGFP-150Q-nls (150Q-nls Neuro2a cells) has been described earlier (T. Nagai et al., supra, H. Doi et al., supra, E. A. Zemskov et al., J Neurochem. 87, 2 (2003)). Neuro2a cells were differentiated with 5mM dbcAMP (N^6, 2′-O-dibutyryladenosine-3′,5′-cyclic monophosphate sodium salt) (Nacalai Tesque) and induced to express tNhtt-polyQ with 2 μM ponasterone A (ponA; Invitrogen) for indicated times. Neuro2a/FRT/TR cell line was generated as described in the protocol for Flp-in/T-Rex system (Invitrogen). Neuro2a tNhtt-62Q-kikGR cell line was generated by transfecting Neuro2a/FRT/TR cells with the pFRT-HD62-KikGR and pOG44 (Invitrogen) constructs using Lipofectamine 2000 reagent and selected with 200 μg/ml hygromycin. The expression of the pFRT-tNhtt-62Q-KikGR was induced by 18 doxycycline treatment of the cells. For the photo-induced kikGR cleavage, cells were exposed to ˜400 nm wavelength for 5 minutes. […]

tNhtt-150Q = biological target: T1, tNhtt-150Q (Homo sapiens, UniProt P42858); assay: Western blot of polyQ aggregation (gel top) in 150Q Neuro2a cells; format: cell-based; settings: expression of mRFP-tagged constructs
T1 construct: N-terminal fragment of human huntington exon 1 (tNhtt); expressed in transfected cells
T1 sequence (P42858 with tags, fused parts or gaps): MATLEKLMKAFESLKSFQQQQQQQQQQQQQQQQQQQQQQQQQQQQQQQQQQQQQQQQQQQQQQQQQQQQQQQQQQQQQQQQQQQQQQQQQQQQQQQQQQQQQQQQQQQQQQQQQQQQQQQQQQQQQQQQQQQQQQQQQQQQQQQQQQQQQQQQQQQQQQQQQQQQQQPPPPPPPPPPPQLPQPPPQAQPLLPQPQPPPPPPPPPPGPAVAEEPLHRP
Experimental: as §1, with “(Invitrogen).” for “(Invitrogen). Neuro2a tNhtt-62Q-kikGR cell line was generated by transfecting Neuro2a/FRT/TR cells with the pFRT-HD62-KikGR and pOG44 (Invitrogen) constructs using Lipofectamine 2000 reagent and selected with 200 μg/ml hygromycin. The expression of the pFRT-tNhtt-62Q-KikGR was induced by 18 doxycycline treatment of the cells. For the photo-induced kikGR cleavage, cells were exposed to ˜400 nm wavelength for 5 minutes.”
(§2) Cells were washed twice with ice-cold PBS, scraped, and resuspended in lysis buffer (0.5% Triton X-100 in PBS, 0.5 mM phenylmethylsulfonyl fluoride, Complete protease inhibitor mixture (Roche Applied Sciences)). […] Immunoreactive proteins were detected with enhanced chemiluminescence reagents (Amersham Biosciences). […]

tNhtt-16Q = assay: Western blot of tNhtt-16Q levels in inducible Neuro2a cells; format: cell-based, human; settings: inducible 16Q Neuro2a cells, transfection
Experimental: as §1, with “(Invitrogen).” for “(Invitrogen). Neuro2a tNhtt-62Q-kikGR cell line was generated by transfecting Neuro2a/FRT/TR cells with the pFRT-HD62-KikGR and pOG44 (Invitrogen) constructs using Lipofectamine 2000 reagent and selected with 200 μg/ml hygromycin. The expression of the pFRT-tNhtt-62Q-KikGR was induced by 18 doxycycline treatment of the cells. For the photo-induced kikGR cleavage, cells were exposed to ˜400 nm wavelength for 5 minutes.”
as §2

[2] = biological target: T2, soluble tNhtt-60Q protein (Homo sapiens, UniProt P42858, INS38QQQQQQQQQQQQQQQQQQQQQQQQQQQQQQQQQQQQQQQ); assay: Chase experiment in 60Q Neuro2a cells (Western blot); format: cell-based; settings: after 24 hours chase
T2 construct: N-terminal fragment of human huntington exon 1 (tNhtt) encoding 60 CAG repeats; expressed in transfected cells; host or cells: 60Q Neuro2a cells (mouse neuroblastoma), ponasterone A induced
T2 sequence (P42858 with tags, fused parts or gaps with the stated changes): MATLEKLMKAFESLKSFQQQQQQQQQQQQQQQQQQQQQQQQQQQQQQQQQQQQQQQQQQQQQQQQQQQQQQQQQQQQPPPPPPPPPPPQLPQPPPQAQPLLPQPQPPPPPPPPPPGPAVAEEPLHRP
Experimental: (§3) To determine whether tNhtt-polyQ degrades faster in the presence of RHQ, chase experiments were performed. Neuro2a were first induced to express tNhtt-polyQ for 20 hrs in case of 60Q and 12 hrs in case of 150Q cells and then transfected with the tested constructs. Four hours later, ponaA was removed; cells were washed with PBS and incubated in the medium containing dbcAMP (for differentiation) for 24 hrs. Cells were lysed and the levels of tNhtt-polyQ were analyzed by Western blotting.
(§4) Cells were washed twice with ice-cold PBS, scraped, and resuspended in lysis buffer (0.5% Triton X-100 in PBS, 0.5 mM phenylmethylsulfonyl fluoride, Complete protease inhibitor mixture (Roche Applied Sciences)). After incubating on ice for 30 minutes lysates were briefly sonicated. Equal amounts of protein were boiled for 5 minutes in 2× SDS-sample buffer, separated by 5-12% gradient SDS-PAGE and electrophoretically transferred to a polyvinylidene difluoride (PVDF) membrane (Millipore). The membranes were blocked in 5% skim milk in 0.05% Tween 20/Tris-buffered saline (TBST) and incubated with primary antibody (dilutions in accordance to manufacturer's recommendations) overnight at […]. […] Immunoreactive proteins were detected with enhanced chemiluminescence reagents (Amersham Biosciences). […]

tNhtt-62Q-kikGR protein = biological target: T3, tNhtt-62Q-kikGR protein (Homo sapiens, UniProt P42858, INS38QQQQQQQQQQQQQQQQQQQQQQQQQQQQQQQQQQQQQQQQQ); assay: Chase experiment in tNhtt-62Q-kikGR Neuro2a cells after photo-cleavage; format: cell-based; settings: twelve hours after irradiation
T3 construct: inserting the htt exon 1 with 62Q (HD62); monomeric KikGR (mKikGR; KikGR BAD95669 with A17S, G32R, I37T, N39T, C116T, V126T, N161E, Q167E, H219Y, L222T, P223Y) (C); expressed in transfected cells; host or cells: Neuro2a/FRT/TR cells (Flp-in/T-Rex), doxycycline induced
T3 sequence (P42858 with tags, fused parts or gaps with the stated changes): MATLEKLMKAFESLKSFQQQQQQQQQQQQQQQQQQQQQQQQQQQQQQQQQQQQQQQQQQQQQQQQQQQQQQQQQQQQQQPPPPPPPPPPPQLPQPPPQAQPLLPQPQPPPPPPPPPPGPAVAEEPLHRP
Experimental: Mouse neuroblastoma (Neuro2a) cells were maintained in Dulbecco's modified Eagle's medium (Sigma) supplemented with 10% heat-inactivated fetal bovine serum (Sigma), 100 U/ml penicillin and 100 μg/ml streptomycin (Invitrogen) at 37° C. in an atmosphere containing 5% CO2 and 95% air. Establishment of stable Neuro2a cell lines with the ecdysone-inducible mammalian expression system (Invitrogen), that express tNhtt-EGFP-16Q (16Q Neuro2a cells), tNhtt-EGFP-150Q (150Q Neuro2a cells) and tNhtt-EGFP-150Q-nls (150Q-nls Neuro2a cells) has been described earlier (T. Nagai et al., supra, H. Doi et al., supra, E. A. Zemskov et al., J Neurochem. 87, 2 (2003)). […]
Neuro2a tNhtt-62Q-kikGR cells were induced for 24 hours, and then the 62Q-kikGR was cleaved by 5 minutes irradiation of the cells. Chase phase lasted for 12 hours before the cells were collected and analyzed.
as §2

[3] = tested on: polyQ inclusions in 150Q-nls Neuro2a cells (tNhtt-EGFP-150Q-nls); assay: ArrayScan quantification of polyQ inclusion formation in inducible 150Q-nls Neuro2a cells; format: cell-based, mouse; settings: 150Qnls Neuro2a cells, mRFP-tagged constructs, after 48 hours of differentiation and induction
Experimental: as §1
(§5) For the quantification of the inclusions, cells were grown in 24-well plates for indicated periods, fixed in 4% paraformaldehyde, washed and incubated with Hoechst 33258 at 1/1000 dilution in PBS. Cells were analyzed by ArrayScan® V^TI High Content Screening (HSC) Reader (Cellomics) using Target Activation BioApplication (TABA). TABA analyzes images acquired by a HSC Reader and provides measurements of the intracellular fluorescence intensity and localization on a cell-by-cell basis.
In each well, at least 10000 cells were counted and quantified for the presence of the inclusions. Nuclei stained with Hoechst 33285 provided the autofocus target and their count gave the exact number of the quantified cells. The screening itself consisted of two scans using Hoechst, FITC (for GFP) and TRITC (for RFP) fluorescence. Firstly, number of inclusions in transfected cells was calculated when fluorescent spots at size of at least 5 pixels (magnification 20× for cytoplasmic and 40× for nuclear aggregates) with average GFP intensity more than 1500 in the RFP background were counted. […] The percentage of the cells with aggregates was then calculated. When the constructs without mRFP were used for transfection, the procedure was same, except the RFP intensity was not measured. […] Data was generated from the quantification of more than 250,000 cells in each experimental set-up.

tNhtt-150Q polyQ protein = biological target: T4, tNhtt-150Q polyQ protein (Homo sapiens, UniProt P42858); assay: Chase experiment in 150Q Neuro2a cells (Western blot); format: cell-based
T4 construct: N-terminal fragment of human huntington exon 1 (tNhtt); expressed in transfected cells
T4 sequence (P42858 with tags, fused parts or gaps): as the sequence (P42858 with tags, fused parts or gaps) above
Experimental: as §3, §4

[4] = tested on: polyQ inclusions in 150Q Neuro2a cells (tNhtt-EGFP-150Q); assay: ArrayScan quantification of polyQ inclusion formation in inducible 150Q Neuro2a cells; format: cell-based, mouse
Experimental: Mouse neuroblastoma (Neuro2a) cells were maintained in Dulbecco's modified Eagle's medium (Sigma) supplemented with 10% heat-inactivated fetal bovine serum (Sigma), 100 U/ml penicillin and 100 μg/ml streptomycin (Invitrogen) at 37° C. in an atmosphere containing 5% CO2 and 95% air. Establishment of stable Neuro2a cell lines with the ecdysone-inducible mammalian expression system (Invitrogen), that express tNhtt-EGFP-16Q (16Q Neuro2a cells), tNhtt-EGFP-150Q (150Q Neuro2a cells) and tNhtt-EGFP-150Q-nls (150Q-nls Neuro2a cells) has been described earlier (T. Nagai et al., supra, H. Doi et al., supra, E. A. Zemskov et al., J Neurochem. 87, 2 (2003)). Neuro2a cells were differentiated with 5mM dbcAMP (N^6, 2′-O-dibutyryladenosine-3′,5′-cyclic monophosphate sodium salt) (Nacalai Tesque) and induced to express tNhtt-polyQ with 2 μM ponasterone A (ponA; Invitrogen) for indicated times. Neuro2a/FRT/TR cell line was generated as described in the protocol for Flp-in/T-Rex system (Invitrogen). Neuro2a tNhtt-62Q-kikGR cell line was generated by transfecting Neuro2a/FRT/TR cells with the pFRT-HD62-KikGR and pOG44 (Invitrogen) constructs using Lipofectamine 2000 reagent and selected with 200 μg/ml hygromycin. The expression of the pFRT-tNhtt-62Q-KikGR was induced by 18 doxycycline treatment of the cells. For the photo-induced kikGR cleavage, cells were exposed to ˜400 nm wavelength for 5 minutes. Rat pheochromocytoma (PC12) cells were grown in the same conditions as Neuro2a cells, except for the serum composition of 5% of fetal bovine and 10% of horse serum (Sigma). All transient transfections were performed with Lipofectamine 2000 (Invitrogen) according to the manufacturer's instruction.
as §5
In each well, at least 10000 cells were counted and quantified for the presence of the inclusions. Nuclei stained with Hoechst 33285 provided the autofocus target and their count gave the exact number of the quantified cells. The screening itself consisted of two scans using Hoechst, FITC (for GFP) and TRITC (for RFP) fluorescence. Firstly, number of inclusions in transfected cells was calculated when fluorescent spots at size of at least 5 pixels (magnification 20× for cytoplasmic and 40× for nuclear aggregates) with average GFP intensity more than 1500 in the RFP background were counted. Secondly, nuclei were defined as the objects of interest and the cells with average intensity more than 50 within 3 pixels from the nucleus were selected for the analysis. The percentage of the cells with aggregates was then calculated. When the constructs without mRFP were used for transfection, the procedure was same, except the RFP intensity was not measured. Scanning was performed with triplicate or quadruplicate in each experimental condition. Data was generated from the quantification of more than 250,000 cells in each experimental set-up.

PC12 cells = assay: Inclusion formation of tNhtt-60Q-Venus with or without HSC70bm in PC12 cells; format: cell-based, rat; settings: 10 mM 3MA, 10 μM pepstatin A
Experimental: The tNhtt-16Q-EGFP and tNhtt-150Q-EGFP plasmids for transient transfection were prepared by the introduction of the coding sequence into pcDNA3.1 vector (Invitrogen). […] HSC70bm were amplified with primers containing SalI in the forward and XmaI cutting site in the reverse primer from the 60QHsc construct. […] To produce molecules without mRFP tag, all constructs were amplified using primers containing BamHI in the forward and XbaI in the reverse primer, respectively, and introduced to pcDNA3.1 vector.
Rat pheochromocytoma (PC12) cells were grown in the same conditions as Neuro2a cells, except for the serum composition of 5% of fetal bovine and 10% of horse serum (Sigma). […]
In each well, at least 10000 cells were counted and quantified for the presence of the inclusions. […] The screening itself consisted of two scans using Hoechst, FITC (for GFP) and TRITC (for RFP) fluorescence. […] The percentage of the cells with aggregates was then calculated. When the constructs without mRFP were used for transfection, the procedure was same, except the RFP intensity was not measured. […]

Row | Compound | localization relative to polyQ inclusions [1] | polyQ aggregation (gel top) (tNhtt-150Q) | levels of tNhtt-16Q (tNhtt-16Q) | enhancement of degradation of soluble tNhtt-60Q protein as compared to R [2] | enhancement of degradation of soluble tNhtt-60Q protein as compared with RQ [2] | decrease of full length (constitutively expressed) tNhtt-62Q-kikGR as compared to RQ (tNhtt-62Q-kikGR protein) | decrease of levels of the cleaved form of tNhtt-62Q-kikGR protein as compared to RQ (tNhtt-62Q-kikGR protein) | decrease of the polyQ inclusion formation [3] | clearance of aggregated and soluble polyQ (tNhtt-150Q polyQ protein; autophagy activation by serum withdrawal) | degradation of the polyQ protein (tNhtt-150Q polyQ protein; chase 24 hours) | effect on polyQ aggregation after silencing of HSC70 and/or Lamp2a with shRNA ([4]; any knock-down combination) | decrease of inclusion formation ([4]; mRFP-tagged constructs, after 24 hours of differentiation and induction) | influence of inhibitor on the effect of HSC70bm on 60Q aggregation (PC12 cells)
1 | mRFP-HSC70bm-(QBP1)2 (MARVKKDQAEPLHRKFERQPPGSNWKWWPGIFDSNWKWWPGIFD; also: fused to mRFP) [RHQ] | co-localized with the polyQ inclusions | much stronger effect; also recorded: markedly decreased | not affected | 43% | 37.4% | 24% | 45.6% | 48.5% | almost complete clearance | enhanced degradation | inhibited | 56.5% | 
2 | Cn1cnc(N)c2ncnc1-2 [3MA, 3-methyladenine] |  |  |  |  |  |  |  |  |  |  |  |  | did not
3 | CC(C)CC(=O)N[C@H](C(=O)N[C@H](C(=O)N[C@@H](CC(C)C)[C@@H](O)CC(=O)N[C@@H](C)C(=O)N[C@@H](CC(C)C)[C@@H](O)CC(=O)O)C(C)C)C(C)C [pepstatin A] (Isovaleryl-VV[Sta]A[Sta]-OH) |  |  |  |  |  |  |  |  |  |  |  |  | alleviated the effect of HSC70bm
